Consider 27 compounds from US20250034147A1, “MDM2 DEGRADERS AND USES THEREOF” (Kymera Therapeutics, Inc., priority 2021, published 2025).

A value given as a limit tells only on which side of the number the result lay.

One may read the DC50 as the concentration giving 50% degradation.

T1 sequence (Q00987 whole entry): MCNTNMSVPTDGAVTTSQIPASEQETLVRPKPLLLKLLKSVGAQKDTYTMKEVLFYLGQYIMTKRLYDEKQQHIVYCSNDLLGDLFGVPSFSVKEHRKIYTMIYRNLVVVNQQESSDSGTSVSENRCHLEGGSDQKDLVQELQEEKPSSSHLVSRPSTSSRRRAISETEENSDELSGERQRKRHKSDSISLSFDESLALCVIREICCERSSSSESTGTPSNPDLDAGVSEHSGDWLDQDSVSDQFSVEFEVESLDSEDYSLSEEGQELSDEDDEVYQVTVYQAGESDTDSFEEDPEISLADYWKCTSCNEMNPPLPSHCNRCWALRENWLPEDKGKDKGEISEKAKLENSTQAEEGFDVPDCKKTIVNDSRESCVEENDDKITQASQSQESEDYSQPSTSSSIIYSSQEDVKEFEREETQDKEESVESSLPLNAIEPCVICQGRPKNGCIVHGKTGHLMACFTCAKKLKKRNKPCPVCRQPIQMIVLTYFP

The experiment concerns the target T1, HiBiT-tagged MDM2 (Homo sapiens, UniProt Q00987).
T1 construct: expressed in transfected cells
Description: MDM2 HiBit HEK293T degradation. Format: cell-based. To be noted: HEK293T cells stably expressing C-terminally HiBiT-tagged MDM2; 4 h; read-out: MDM2 HiBit HEK293T degradation 4 h: Average external-Abs DC50. How it is done: HEK293T cells were grown overnight to 70-80% confluency in a 6-well plate in complete media (DMEM 10% FBS) in a 37° C. incubator with 5% CO2. Cells were transfected with 1 micrograms of C- or N-terminally HiBiT-tagged MDM2 constructs using Fugene 6 transfection reagent (Promega) as per manufacturer protocol. After overnight incubation at 37° C., growth media within the wells was replaced with selection media (DMEM+10% FBS+1 microgram/ml final concentration of Puromycin). Puromycin (selection antibiotic) concentrations required for complete cell kill were determined previously. Cells were monitored for the next 48h-96h to select for positively transfected cells. Surviving colonies were pooled and expanded in selection media. Expanded pools of HEK293T cells stably expressing C- and N-terminally HiBiT-tagged MDM2, were characterized using a MDM2 tool degrader and HaloPROTAC3 as positive control. HEK293T cells expressing C-terminally HiBiT-tagged MDM2 were subsequently used for assessment of degradation potencies for MDM2 degraders.
The letter codes for MDM2 degradation potency (DC50) include: A (<10 nM), B […], C (>100-1000 nM), and D (>1000 nM).
(In general: The HiBiT peptide binds its large partner to form an active luciferase.)
In the case of `C[C@H]1CN(C(=O)[C@H]2CC[C@H](NC(=O)[C@@H]3NC4(CCCCC4)[C@@]4(C(=O)Nc5cc(Cl)ccc54)[C@H]3c3cccc(Cl)c3F)CC2)CCN1CCc1ccc2c(c1)n(C)c(=O)n2C1CCC(=O)NC1=O` (stereo partly drawn) [I-121], the DC50 is less than 10 nM.
Take `C[C@@H]1CN(C(=O)[C@H]2CC[C@H](NC(=O)[C@@H]3NC4(CCCCC4)[C@@]4(C(=O)Nc5cc(Cl)ccc54)[C@H]3c3cccc(Cl)c3F)CC2)CCN1CCc1ccc2c(c1)n(C)c(=O)n2C1CCC(=O)NC1=O` (stereo partly drawn) [I-122]: the DC50 was less than 10 nM.
Regarding `Cn1c(=O)n(C2CCC(=O)NC2=O)c2ccc(C3CC4(C3)CN(C[C@H]3CC[C@H](NC(=O)[C@@H]5NC6(CCCCC6)[C@@]6(C(=O)Nc7cc(Cl)ccc76)[C@H]5c5cccc(Cl)c5F)CC3)C4)cc21` (stereo partly drawn) [I-123], the DC50 is less than 10 nM.
Next, `Cn1c(=O)n(C2CCC(=O)NC2=O)c2ccc(N3CCN(C(=O)CN4CCC(NC(=O)[C@@H]5NC6(CCCCC6)[C@@]6(C(=O)Nc7cc(Cl)ccc76)[C@H]5c5cccc(Cl)c5F)CC4)CC3)cc21` (stereo partly drawn) [I-125]: less than 10 nM.
As for `CN(C(=O)[C@H]1CC[C@H](NC(=O)[C@@H]2NC3(CCCCC3)[C@@]3(C(=O)Nc4cc(Cl)ccc43)[C@H]2c2cccc(Cl)c2F)CC1)C1CCN(Cc2ccc3c(c2)n(C)c(=O)n3C2CCC(=O)NC2=O)CC1` (stereo partly drawn) [I-127], the half-maximal degradation concentration (DC50) is less than 10 nM.
Next, `Cn1c(=O)n(C2CCC(=O)NC2=O)c2ccc([C@H]3CC[C@H](CN4CCC(NC(=O)[C@@H]5NC6(CCCCC6)[C@@]6(C(=O)Nc7cc(Cl)ccc76)[C@H]5c5cccc(Cl)c5F)CC4)CC3)cc21` (stereo partly drawn) [I-130]: less than 10 nM; `Cn1c(=O)n(C2CCC(=O)NC2=O)c2ccc(CC3(C(=O)O)CCN(C(=O)[C@H]4CC[C@H](NC(=O)[C@@H]5NC6(CCCCC6)[C@@]6(C(=O)Nc7cc(Cl)ccc76)[C@H]5c5cccc(Cl)c5F)CC4)CC3)cc21` (stereo partly drawn) [I-131]: 100 to 1000 nM; `Cn1c(=O)n(C2CCC(=O)NC2=O)c2ccc(CCCC3(CC(=O)O)CCN(C(=O)[C@H]4CC[C@H](NC(=O)[C@@H]5NC6(CCCCC6)[C@@]6(C(=O)Nc7cc(Cl)ccc76)[C@H]5c5cccc(Cl)c5F)CC4)CC3)cc21` (stereo partly drawn) [I-132]: 100 to 1000 nM.
Take `Cn1c(=O)n(C2CCC(=O)NC2=O)c2ccc(CCCN3CCN(C(=O)[C@@H]4CC[C@@H](NC(=O)[C@@H]5NC6(CCCCC6)[C@@]6(C(=O)Nc7cc(Cl)ccc76)[C@H]5c5cccc(Cl)c5F)CO4)CC3)cc21` (stereo partly drawn) [I-133]: the DC50 was less than 10 nM.
For the compound `Cn1c(=O)n(C2CCC(=O)NC2=O)c2ccc(CCC(=O)N3CCN(C[C@H]4CC[C@H](NC(=O)[C@@H]5NC6(CCCCC6)[C@@]6(C(=O)Nc7cc(Cl)ccc76)[C@H]5c5cccc(Cl)c5F)CC4)CC3)cc21` (stereo partly drawn) [I-134], the DC50 is less than 10 nM.
Regarding `Cn1c(=O)n(C2CCC(=O)NC2=O)c2ccc(CN3CCN(C(=O)[C@H]4CC[C@H](NC(=O)[C@@H]5NC6(CCCCC6)[C@@]6(C(=O)Nc7cc(Cl)ccc76)[C@H]5c5cccc(Cl)c5F)CC4)C(C(=O)O)C3)cc21` (stereo partly drawn) [I-135], the DC50 is 100 to 1000 nM.
Next, `Cn1c(=O)n(C2CCC(=O)NC2=O)c2ccc(CCCO[C@@H]3C[C@@H](C(=O)O)N(C(=O)[C@H]4CC[C@H](NC(=O)[C@@H]5NC6(CCCCC6)[C@@]6(C(=O)Nc7cc(Cl)ccc76)[C@H]5c5cccc(Cl)c5F)CC4)C3)cc21` (stereo partly drawn) [I-136]: 10 to 100 nM.
On to `Cn1c(=O)n(C2CCC(=O)NC2=O)c2ccc([C@H]3CC[C@H](N4CCC(NC(=O)[C@@H]5NC6(CCCCC6)[C@@]6(C(=O)Nc7cc(Cl)ccc76)[C@H]5c5cccc(Cl)c5F)CC4)CC3)cc21` (stereo partly drawn) [I-138], for which the DC50 is less than 10 nM.
Under `Cn1c(=O)n(C2CCC(=O)NC2=O)c2ccc(N3CCC(N4CCC(NC(=O)[C@@H]5NC6(CCCCC6)[C@@]6(C(=O)Nc7cc(Cl)ccc76)[C@H]5c5cccc(Cl)c5F)CC4)CC3)cc21` (stereo partly drawn) [I-139] stands less than 10 nM; under `Cn1c(=O)n(C2CCC(=O)NC2=O)c2ccc(CCCO[C@@H]3C[C@H](C(=O)O)N(C(=O)[C@H]4CC[C@H](NC(=O)[C@@H]5NC6(CCCCC6)[C@@]6(C(=O)Nc7cc(Cl)ccc76)[C@H]5c5cccc(Cl)c5F)CC4)C3)cc21` (stereo partly drawn) [I-141], 100 to 1000 nM; under `Cn1c(=O)n(C2CCC(=O)NC2=O)c2ccc(N3CCN(C(=O)[C@H]4CC[C@H](NC(=O)[C@@H]5NC6(CCCCC6)[C@@]6(C(=O)Nc7cc(Cl)ccc76)[C@H]5c5cccc(Cl)c5F)CC4)C(C(=O)O)C3)cc21` (stereo partly drawn) [I-142], 10 to 100 nM.
In the case of `Cn1c(=O)n(C2CCC(=O)NC2=O)c2ccc(O[C@@H]3C[C@@H](C(=O)O)N(C(=O)[C@H]4CC[C@H](NC(=O)[C@@H]5NC6(CCCCC6)[C@@]6(C(=O)Nc7cc(Cl)ccc76)[C@H]5c5cccc(Cl)c5F)CC4)C3)cc21` (stereo partly drawn) [I-143], the DC50 fell in the range of 10 to 100 nM.
`Cn1c(=O)n(C2CCC(=O)NC2=O)c2ccc(C3CCN(CCC(=O)N4CCC(NC(=O)[C@@H]5NC6(CCCCC6)[C@@]6(C(=O)Nc7cc(Cl)ccc76)[C@H]5c5cccc(Cl)c5F)CC4)CC3)cc21` (stereo partly drawn) [I-146]: the half-maximal degradation concentration (DC50) is less than 10 nM.
Take `Cn1c(=O)n(C2CCC(=O)NC2=O)c2ccc(CN3CCN(CCCN4CCC(NC(=O)[C@@H]5NC6(CCCCC6)[C@@]6(C(=O)Nc7cc(Cl)ccc76)[C@H]5c5cccc(Cl)c5F)CC4)CC3)cc21` (stereo partly drawn) [I-147]: the DC50 is 10 to 100 nM.
Under `Cc1ncsc1-c1ccc(CNC(=O)[C@@H]2C[C@@H](O)CN2C(=O)[C@@H](NC(=O)CCCCC2CCN(C(=O)[C@H]3CC[C@H](NC(=O)[C@@H]4NC5(CCCCC5)[C@@]5(C(=O)Nc6cc(Cl)ccc65)[C@H]4c4cccc(Cl)c4F)CC3)CC2)C(C)(C)C)cc1` [I-148] stands greater than 1000 nM; under `Cc1ncsc1-c1ccc(CNC(=O)[C@@H]2C[C@@H](O)CN2C(=O)[C@@H](NC(=O)C2(F)CC2)C(C)(C)C)c(OCCCCCCCCNC(=O)[C@H]2CC[C@H](NC(=O)[C@@H]3NC4(CCCCC4)[C@@]4(C(=O)Nc5cc(Cl)ccc54)[C@H]3c3cccc(Cl)c3F)CC2)c1` [I-149], greater than 1000 nM.
As to `Cn1c(=O)n(C2CCC(=O)NC2=O)c2ccc(CCN3CCN(CCN4CCC(NC(=O)[C@@H]5NC6(CCCCC6)[C@@]6(C(=O)Nc7cc(Cl)ccc76)[C@H]5c5cccc(Cl)c5F)CC4)CC3)cc21` (stereo partly drawn) [I-151], the DC50 is less than 10 nM.
Under `Cn1c(=O)n(C2CCC(=O)NC2=O)c2cccc(C3CCN(CCN4CCC(NC(=O)[C@@H]5NC6(CCCCC6)[C@@]6(C(=O)Nc7cc(Cl)ccc76)[C@H]5c5cccc(Cl)c5F)CC4)CC3)c21` (stereo partly drawn) [I-152] stands less than 10 nM; under `Cn1c(=O)n(C2CCC(=O)NC2=O)c2ccc(-c3ccc(CCN4CCC(NC(=O)[C@@H]5NC6(CCCCC6)[C@@]6(C(=O)Nc7cc(Cl)ccc76)[C@H]5c5cccc(Cl)c5F)CC4)cc3)cc21` (stereo partly drawn) [I-154], less than 10 nM; under `Cn1c(=O)n(C2CCC(=O)NC2=O)c2ccc(C3CCN([C@H]4CC[C@H](N5CCC(NC(=O)[C@@H]6NC7(CCCCC7)[C@@]7(C(=O)Nc8cc(Cl)ccc87)[C@H]6c6cccc(Cl)c6F)CC5)CC4)CC3)cc21` (stereo partly drawn) [I-155], less than 10 nM.
Regarding `O=C1CCN(c2ccc(CCCCN3CCN(C(=O)[C@H]4CC[C@H](NC(=O)[C@@H]5NC6(CCCCC6)[C@@]6(C(=O)Nc7cc(Cl)ccc76)[C@H]5c5cccc(Cl)c5F)CC4)CC3)cc2)C(=O)N1` [I-156], the 50% degradation concentration (DC50) is greater than 1000 nM.
Under `Cn1c(=O)n(C2CCC(=O)NC2=O)c2ccc(C3CCN(C(=O)CN4CCC(NC(=O)[C@@H]5NC6(CCC(C)(C)CC6)[C@@]6(C(=O)Nc7cc(Cl)ccc76)[C@H]5c5ccnc(Cl)c5F)CC4)CC3)cc21` (stereo partly drawn) [I-160] stands less than 10 nM.
